Source: patent US20220281848A1, “PYRAZOLE-SUBSTITUTED PYRROLIDINONES AS HERBICIDES” (FMC Corporation, priority 2019, published 2022)

What was measured:
Type in all cases: in vivo
Settings in all cases: after 13 d
[1] = tested on: ivy-leaved morning glory (Ipomoea hederacea, IPOHE); experiment: Test A post-emergence, ivy-leaved morning glory
Method: (§1) Seeds of corn (Zea mays, ZEAMX), giant foxtail (Setaria faberi, SETFA), barnyardgrass (Echinochloa crus-galli, ECHCG), ivy-leaved morning glory (Ipomoea hederacea, IPOHE)), redroot pigweed (Amaranthus retroflexus, AMARE) and velvetleaf (Abutilon theophrasti, ABUTH) were sown in standard soil in pots. After cultivation for 8 d under controlled conditions in a glasshouse (at 24/16° C., day/night; 14 h light; 65% humidity), the plants were sprayed with an aqueous spray solution derived from the formulation of the technical active ingredient in acetone/water (50:50) solution containing 0.5% Tween 20 (polyoxyethylene sorbitan monolaurate, CAS RN 9005-64-5) to give a final dose of 15.625, 62.5 or 250 g/ha of test compound.
(§2) The test plants were then grown on under controlled conditions in a glasshouse (at 24/16° C., day/night; 14 h light; 65% humidity) and watered twice daily. After 13 d the test was evaluated (100=total damage to plant; 0=no damage to plant).

[2] = tested on: velvetleaf (Abutilon theophrasti, ABUTH); experiment: Test A pre-emergence, velvetleaf
Method: as §1, with “IPOHE),” for “IPOHE)),”, “one day” for “8 d”
(§3) The test plants were then grown under controlled conditions in a glasshouse (at 24/16° C., day/night; 14 h light; 65% humidity) and watered twice daily. After 13 d the test was evaluated (100=total damage to plant; 0=no damage to plant).

[3] = tested on: barnyardgrass (Echinochloa crus-galli, ECHCG); experiment: Test A pre-emergence, barnyardgrass
Method: as §1, with “IPOHE),” for “IPOHE)),”, “one day” for “8 d”
as §3

[4] = tested on: barnyardgrass (Echinochloa crus-galli, ECHCG); experiment: Test A post-emergence, barnyardgrass
Method: as §1, §2

[5] = tested on: redroot pigweed (Amaranthus retroflexus, AMARE); experiment: Test A pre-emergence, redroot pigweed
Method: as §1, with “IPOHE),” for “IPOHE)),”, “one day” for “8 d”
as §3

[6] = tested on: giant foxtail (Setaria faberi, SETFA); experiment: Test A post-emergence, giant foxtail
Method: as §1, §2

[7] = tested on: velvetleaf (Abutilon theophrasti, ABUTH); experiment: Test A post-emergence, velvetleaf
Method: as §1, §2

[8] = tested on: redroot pigweed (Amaranthus retroflexus, AMARE); experiment: Test A post-emergence, redroot pigweed
Method: as §1, §2

corn (Zea mays, ZEAMX) [9] = experiment: Test A post-emergence, corn
Method: as §1, §2

corn (Zea mays, ZEAMX) [10] = experiment: Test A pre-emergence, corn
Method: as §1, with “IPOHE),” for “IPOHE)),”, “one day” for “8 d”
as §3

[11] = tested on: ivy-leaved morning glory (Ipomoea hederacea, IPOHE); experiment: Test A pre-emergence, ivy-leaved morning glory
Method: as §1, with “IPOHE),” for “IPOHE)),”, “one day” for “8 d”
as §3

[12] = tested on: giant foxtail (Setaria faberi, SETFA); experiment: Test A pre-emergence, giant foxtail
Method: as §1, with “IPOHE),” for “IPOHE)),”, “one day” for “8 d”
as §3

Row | Structure (SMILES) | damage to plant (100=total damage; 0=no damage) IPOHE ([1]; Post-Emergence at 15.625 g/ha) | damage to plant (100=total damage; 0=no damage) IPOHE ([1]; Post-Emergence at 62.5 g/ha) | damage to plant (100=total damage; 0=no damage) IPOHE ([1]; Post-Emergence at 250 g/ha) | damage to plant (100=total damage; 0=no damage) ABUTH ([2]; Pre-Emergence at 15.625 g/ha) | damage to plant (100=total damage; 0=no damage) ABUTH ([2]; Pre-Emergence at 62.5 g/ha) | damage to plant (100=total damage; 0=no damage) ABUTH ([2]; Pre-Emergence at 250 g/ha) | damage to plant (100=total damage; 0=no damage) ECHCG ([3]; Pre-Emergence at 15.625 g/ha) | damage to plant (100=total damage; 0=no damage) ECHCG ([3]; Pre-Emergence at 62.5 g/ha) | damage to plant (100=total damage; 0=no damage) ECHCG ([3]; Pre-Emergence at 250 g/ha) | damage to plant (100=total damage; 0=no damage) ECHCG ([4]; Post-Emergence at 15.625 g/ha) | damage to plant (100=total damage; 0=no damage) ECHCG ([4]; Post-Emergence at 62.5 g/ha) | damage to plant (100=total damage; 0=no damage) ECHCG ([4]; Post-Emergence at 250 g/ha) | damage to plant (100=total damage; 0=no damage) AMARE ([5]; Pre-Emergence at 15.625 g/ha) | damage to plant (100=total damage; 0=no damage) AMARE ([5]; Pre-Emergence at 62.5 g/ha) | damage to plant (100=total damage; 0=no damage) AMARE ([5]; Pre-Emergence at 250 g/ha) | damage to plant (100=total damage; 0=no damage) SETFA ([6]; Post-Emergence at 15.625 g/ha) | damage to plant (100=total damage; 0=no damage) SETFA ([6]; Post-Emergence at 62.5 g/ha) | damage to plant (100=total damage; 0=no damage) SETFA ([6]; Post-Emergence at 250 g/ha) | damage to plant (100=total damage; 0=no damage) ABUTH ([7]; Post-Emergence at 15.625 g/ha) | damage to plant (100=total damage; 0=no damage) ABUTH ([7]; Post-Emergence at 62.5 g/ha) | further results
1 | CN1CC(c2cc(Cl)n(C)n2)C(C(=O)Nc2ccc(F)cc2F)C1=O (racemic) [Compound 29] | 0 | 0 | 10 | 0 | 0 | 0 | 30 | 70 | 80 | 20 | 50 | 60 | 0 | 0 | 0 | 10 | 20 | 60 | 0 | 0 | damage to plant (100=total damage; 0=no damage) ABUTH ([7]; Post-Emergence at 250 g/ha): 0; damage to plant (100=total damage; 0=no damage) AMARE ([8]; Post-Emergence at 15.625 g/ha): 10; damage to plant (100=total damage; 0=no damage) AMARE ([8]; Post-Emergence at 62.5 g/ha): 30; damage to plant (100=total damage; 0=no damage) AMARE ([8]; Post-Emergence at 250 g/ha): 40; damage to plant (100=total damage; 0=no damage) ZEAMX (corn (Zea mays, ZEAMX) [9]; Post-Emergence at 15.625 g/ha): 0; damage to plant (100=total damage; 0=no damage) ZEAMX (corn (Zea mays, ZEAMX) [9]; Post-Emergence at 62.5 g/ha): 0; damage to plant (100=total damage; 0=no damage) ZEAMX (corn (Zea mays, ZEAMX) [9]; Post-Emergence at 250 g/ha): 0; damage to plant (100=total damage; 0=no damage) ZEAMX (corn (Zea mays, ZEAMX) [10]; Pre-Emergence at 15.625 g/ha): 0; damage to plant (100=total damage; 0=no damage) ZEAMX (corn (Zea mays, ZEAMX) [10]; Pre-Emergence at 62.5 g/ha): 10; damage to plant (100=total damage; 0=no damage) ZEAMX (corn (Zea mays, ZEAMX) [10]; Pre-Emergence at 250 g/ha): 10; damage to plant (100=total damage; 0=no damage) IPOHE ([11]; Pre-Emergence at 15.625 g/ha): 0; damage to plant (100=total damage; 0=no damage) IPOHE ([11]; Pre-Emergence at 62.5 g/ha): 0; damage to plant (100=total damage; 0=no damage) IPOHE ([11]; Pre-Emergence at 250 g/ha): 0; damage to plant (100=total damage; 0=no damage) SETFA ([12]; Pre-Emergence at 15.625 g/ha): 20; damage to plant (100=total damage; 0=no damage) SETFA ([12]; Pre-Emergence at 62.5 g/ha): 30; damage to plant (100=total damage; 0=no damage) SETFA ([12]; Pre-Emergence at 250 g/ha): 80
2 | CCc1ccccc1NC(=O)C1C(=O)N(C)CC1c1cc(C(F)(F)F)n(C)n1 (racemic) [Compound 20] | 0 | 0 | 0 | 0 | 0 | 0 | 50 | 80 | 90 | 20 | 60 | 80 | 50 | 60 | 70 | 30 | 70 | 80 | 0 | 0 | damage to plant (100=total damage; 0=no damage) ABUTH ([7]; Post-Emergence at 250 g/ha): 0; damage to plant (100=total damage; 0=no damage) AMARE ([8]; Post-Emergence at 15.625 g/ha): 10; damage to plant (100=total damage; 0=no damage) AMARE ([8]; Post-Emergence at 62.5 g/ha): 10; damage to plant (100=total damage; 0=no damage) AMARE ([8]; Post-Emergence at 250 g/ha): 20; damage to plant (100=total damage; 0=no damage) ZEAMX (corn (Zea mays, ZEAMX) [9]; Post-Emergence at 15.625 g/ha): 0; damage to plant (100=total damage; 0=no damage) ZEAMX (corn (Zea mays, ZEAMX) [9]; Post-Emergence at 62.5 g/ha): 0; damage to plant (100=total damage; 0=no damage) ZEAMX (corn (Zea mays, ZEAMX) [9]; Post-Emergence at 250 g/ha): 0; damage to plant (100=total damage; 0=no damage) ZEAMX (corn (Zea mays, ZEAMX) [10]; Pre-Emergence at 15.625 g/ha): 0; damage to plant (100=total damage; 0=no damage) ZEAMX (corn (Zea mays, ZEAMX) [10]; Pre-Emergence at 62.5 g/ha): 0; damage to plant (100=total damage; 0=no damage) ZEAMX (corn (Zea mays, ZEAMX) [10]; Pre-Emergence at 250 g/ha): 20; damage to plant (100=total damage; 0=no damage) IPOHE ([11]; Pre-Emergence at 15.625 g/ha): 0; damage to plant (100=total damage; 0=no damage) IPOHE ([11]; Pre-Emergence at 62.5 g/ha): 0; damage to plant (100=total damage; 0=no damage) IPOHE ([11]; Pre-Emergence at 250 g/ha): 0; damage to plant (100=total damage; 0=no damage) SETFA ([12]; Pre-Emergence at 15.625 g/ha): 50; damage to plant (100=total damage; 0=no damage) SETFA ([12]; Pre-Emergence at 62.5 g/ha): 80; damage to plant (100=total damage; 0=no damage) SETFA ([12]; Pre-Emergence at 250 g/ha): 90
